# Assay results: patent US20220387621A1, “TARGETED DELIVERY OF NANOCARRIER-CONJUGATED DOXORUBICIN” (priority 2019, published 2022)
# Tests used:
# [1] = test system: BJAB cells; assay: Fluorescent confocal microscopy, nuclear colocalization in BJAB; format: cell-based, human; details: 24 hours
# Procedure: Cells were seeded at 50,000 cells per well in a 12-well plate and treated with either vehicle or drug. BJAB cells were fixed with 4% paraformaldehyde and permeabilized with 1% NP40 followed by staining for DAPI (Thermofisher Scientific, Waltham, Mass., USA). Cells were then imaged (60×) using a Leica DM4 B microscope. HEK293 cells had the nucleus stained for DAPI (Thermo #R37605) or GFP (Thermo #C10602) per the manufacturer protocol. Cells were live-imaged (63× objective) using Leica Sp5 confocal microscop and images collected and analyzed using ImageJ software.
# [2] = test system: murine B-lymphoma line A20; assay: 48-hour viability assay of A20 cells; format: cell-based; details: Mus musculus
# Procedure: (§1) For 24-48 hr assessments, cells were seeded at 5000 cells per well in a 96-well plate under serial drug dilutions. For delayed drug effect viability, cells were seeded at 500,000 cells per well in a 6-well plate on day 0 and treated with drug for 24 hrs, after which cells were washed ×2 and plated in normal cell media without drug. Viability was assessed using Cell Titer Glo (Promega #G7573) according to manufacturer's protocol. Luminescence was measured using BioTek Synergy HT plate reader. EC50s were calculated using nonlinear fit regression analysis in GraphPad Prism 8. Apoptosis assessment was conducted with BD Biosciences reagent (#559763) using Attune NxT flow cytometer.
# [3] = test system: DLBCL PDX tumor; details: mouse, in vivo
# Procedure: (§2) All animal studies were performed under the approval of the University of Miami Institutional Animal Care and Use committee. […] For tumor-bearing experiments, DLBCL PDX DFBL-75549 tumor model was obtained and engrafted mice through surgical dorsal tumor implantation. Tumor volume (TV) was measured by ultrasound (Vevo 3100, Visualsonics) with a predetermined survival endpoint of TV>1500 mm3. A continuous body weight loss of >20% was also a predetermined survival endpoint. For dose-finding experiments, mice were dosed intravenously on day 0, day 14, and day 24 and observed for changes in body weight. For R-nanoCHOP vs. R-CHOP tumor-bearing experiments, mice were dosed with all drugs intravenously once on day 1 of every 21 days, with exception to Prednisone administered orally. The following drug doses were used: Rituximab 20 mg/kg, Cyclophosphamide 40 mg/kg, Doxorubicin 3.3 mg/kg, CDT 33 mg/kg, Vincristine 0.5 mg/kg, Prednisone 0.2 mg/kg.
# [4] = in vivo; details: mouse
# Procedure: as §2
# Formalin-fixed paraffin-embedded tissue sections, produced per standard protocols, were used to make H&E-stained and immunohistochemistry (IHC) pathology slides. Antibodies were used as per above, when applicable.
# [5] = test system: BJAB, Farage, SU-DHL4, and Riva cells; assay: Delayed drug effect viability: 24 h drug, washout, viability tracking over 6 days; format: cell-based, human
# Procedure: as §1
# [6] = test system: BJAB and Farage cells; assay: 48-hour viability with TFRC overexpression, holo-TF competition or dynasore; format: cell-based, human; details: 15 μM, 50 μM
# Procedure: as §1
# Human TFRC cDNA (HsCD00044911) was purchased from the DNASU Plasmid Repository (Tempe, Ariz., USA) and was subsequently cloned into pLVX-IRES-ZsGreenl vector (Clontech Laboratories, Mountain View, Calif., USA). Recombinant plasmids, together with packaging/envelope plasmids psPAX2 and pMD2.G (Addgene, Cambridge, Mass., USA), were co-transfected into HEK293 cells using Lipofectamine 3000 (Invitrogen, Carlsbad, Calif., USA) following manufacturer's instructions. Cell media was changed at 24 hours after transfection, and viral particles collected at 48 hours and 72 hours post transfection.
# For viral transduction, BJAB and Farage cells were infected with harvested virus by spinoculation. […]
Structure (SMILES),nuclear colocalization [1],EC50 [2] [nM],anti-tumor efficacy (OS and tumor volume) [3],body weight after two additional doses [3],body weight nadir [3] [days],return to starting weight [3] [days],"MTD ([4]; male, NOD scid gamma (NSG), iv) [mg/kg]",weight loss at MTD [4] [%],cell viability over time-course after washout [5],"viability, single agent [6]"
"COc1cccc2c1C(=O)c1c(O)c3c(c(O)c1C2=O)C[C@@](O)(C(=O)CO)C[C@@H]3O[C@H]1C[C@H](N)[C@H](O)[C@H](C)O1 [Dox, doxorubicin]",similar,10.6,relatively weak antitumor activity,irreversible weight loss,8,10 to 14,3.3,~20,seen only with much higher doses,
"O=C(N/N=C/c1ccc(O)c(O)c1)c1cc2ccccc2cc1O [dynasore, Dynasore]",,,,,,,,,,negatively affected viability
